# Like-named read-outs stand apart in the source and are kept apart here.
# What was measured:
# [1] = test system: AML CD34+ cells; experiment: Apoptosis/viability of AML CD34+ cells (annexin-V FITC/7AAD); format: cell-based, human; details: for viability at 5 µM: 5 μM fenretinide
# Description: (§1) Fresh bone marrow (BM) cells were obtained from 38 patients with CML and 5 non-leukemic donors, 25 AML, 17 ALL, and 8 normal specimens with informed consent according to the Declaration of Helsinki. Approval was obtained from Institutional Review Board at the School of Medicine in Shanghai Jiao Tong University. BM mononuclear cells were isolated by Ficoll density gradient centrifugation (Shanghai Second Reagent Factory, Shanghai, China). CD34^+ Cell were selected using EasySep® Human CD34 Positive Selection kit (Stem Cell Technologies, Vancouver, BC, Canada) according to the manufacturer's instructions. The purity of CD34 cells ranged between 92 and 98% in all samples detennined by flow cytometry. The CD34^+ cells were cultured in a serum-free medium (StemPro 34; Gibco BRL, Gaithersburg, Md.) supplemented with growth factors (PeproTech, London, United Kingdom) (20). The growth factors consisted of GM-CSF (200 pg/mL), G-CSF (1 ng/mL); SCF (200 pg/mL); LIF (50 pg/mL), MIP-1α (200 pg/mL) and IL-6 (1 ng/mL).
# (§2) Primitive AML and CML subpopulations (CD34^+ cells) were identified using CD34-PE in combination with CD38-APC, and followed by double-labeling with 7AAD and Annexin V antibodies for apoptosis assessment. The CD34^+ cells were first stained with antibodies against the surface markers CD34-PE and CD38-APC (Beckman Coulter, Fullerton, Calif.) and incubated at room temperature for 15 minutes. Cells were then washed with cold PBS and resuspended in 200 μL annexin V 1×binding buffer (10 mM HEPES/NaOH, pH 7.4, 140 mM NaCl, 2.5 mM CaCl2), 5 μL AnnexinV-FITC (BD Phanningen, San Diego, Calif.) and 7-aminoactinomycin (7-AAD, 0.25 mg/mL) (Molecular Probes, Eugene, Oreg.). Subsequently, the samples were incubated at room temperature for 15 minutes and analyzed by flow cytometry.
# (§3) Primary acute leukemia cells from specimens including AML and ALL are mostly quiescent, especially for the subpopulations of leukemic CD34^+ cells (Guan and Hogge, 2000). To verify if this quiescent leukemia cells are sensitive to fenretinide, we compared the effects of fenretinide on primary leukemia versus normal specimens during short-term suspension culture. CD34^+ cells were isolated from primary acute leukemia specimens, and subjected to DNA content analysis through propidium iodide staining and followed by flow cytometry. The majority of isolated CD34^+ cells from AML and ALL were in G0/G1 phase of the cell cycle, indicating the quiescent feature of leukemia CD34^+ cells (FIG. 4A). Then, apoptosis profiles of AML CD34^+ cells and normal CD34^+ cells were examined through annexin-V FITC and 7AAD double staining (FIG. 4B).
# [2] = test system: CML mononuclear cells; experiment: Apoptosis of CML mononuclear cells; format: cell-based, human; details: CML patient specimens
# Description: as §1
# (§4) Primitive AML and CML subpopulations (CD34^+ cells) were identified using CD34-PE in combination with CD38-APC, and followed by double-labeling with 7AAD and Annexin V antibodies for apoptosis assessment. […] Subsequently, the samples were incubated at room temperature for 15 minutes and analyzed by flow cytometry. […]
# [3] = test system: normal hematopoietic CD34+ cells; experiment: Apoptosis/viability of normal hematopoietic CD34+ cells; format: cell-based, human
# Description: as §1, §2, §3
# [4] = test system: XBP-1; experiment: RT-PCR of ER stress marker XBP-1 splicing in K562 cells; format: cell-based; details: whole time courses
# Description: (§5) Real-time quantitative RT-PCR was preformed on ABI7900 thermocycler detection system using SYBR Green I (Applied Biosystems, Foster City, Calif.).
# Despite of tremendous efforts (Oridate et al., 1997), mechanisms underlying fenretinide-induced apoptosis are far from clear. In particular, knowledge in terms of how oxidative stress is converted into downstream activities in fenretinide-treated cancer cells is limited. We performed a comprehensive analysis of fenretinide-induced apoptosis in leukemia cell lines through microarray technology integrated robust data mining tool, and techniques of molecular biology. Transcriptome analysis of fenretinide-induced apoptosis in NB4 cells highlighted numerous stress-responsive events at the temporal-spatial level, typifying a process of oxidative stress-mediated apoptosis. Among these prominent events were genes involved in transcriptional regulation, ribosome machinery, oxidative stress, endoplasmic reticulum stress/unfolded protein response (UPR), ubiquitin-proteasome system and apoptosis (FIG. 7A). […] Recently, data have shown that fenretinide may perturb cellular homeostasis and induced ER stress, which may eventually contribute to apoptosis. ER stress is cellular defense mechanism responding to various stimuli including oxidative stressors. […]
# [5] = test system: CD34+CD38− CML stem cells (LSC); experiment: Apoptosis (Annexin V/7AAD, FACS) of CML stem cells; format: cell-based, human
# Description: as §1, §2
# It would be of significance to find out the subpopulations specifically targeted by fenretinide. We divided the CML patient specimens into mononuclear cells and CD34^+ cells. The CD34^+ CML cells are primitive cells including CML stem and progenitor cells. Upon treated with fenretinide, CD34^+ CML cells were further subdivided into CD34^+CD38^− enriched with CML stem cells and CD34^+CD38^+ with CML progenitor cells. After gating on primitive CML subfractions, 7AAD and Annexin V antibodies were utilized for apoptosis assessment by FACS. […] The difference of apoptosis rates between CD34^+CD38^+ and CD34^+CD38^− cells was significant (p<0.001). The effects of the fenretinide exposures on the leukemia stem cells (LSC) and normal hematopoietic stem cells (HSC) in the CD34^+CD38^− cells were shown in a representative specimen (FIG. 3B). The specimens in 5 CML patients had the similar effects on the LSC and in 5 non-leukemic donors had the similar patterns as that of nonnal HSC.
# [6] = test system: oxidative and ER stress genes; experiment: Real-time quantitative RT-PCR of oxidative and ER stress genes in CML CD34+ cells; format: cell-based, human; details: fenretinide-treated CML CD34+ cells
# Description: as §5
# Fenretinide preferentially targets more primitive leukemia stem and progenitor cells (Example 3 and Example 4), and mechanisms are involved in ROS-dependent apoptosis in a panel of leukemia cell lines. Additionally, the process of fenretinide-induced apoptosis is modulated by a large number of oxidative and ER stress genes (Example 5 and Example 6). It is of significant value to further evaluate whether fenretinide exerts similar mechanism on primitive leukemia stem and progenitor cells. Thus, we isolated CD34^+ cells from CML patients, which were subjected to real-time quantitative RT-PCR for oxidative and ER stress genes identified based on microarray analysis of fenretinide-treated K562 cells.
# [7] = test system: ALL CD34+ cells; experiment: Viability of ALL CD34+ cells; format: cell-based; details: Homo sapiens
# Description: as §1, §4
structure (smiles),measurement,setting,value
"CC1=C(/C=C/C(C)=C/C=C/C(C)=C/C(=O)Nc2ccc(O)cc2)C(C)(C)CCC1 [fenretinide, N-(4-hydroxyphenyl)retinamide]",viability at 5 µM,"[1]; Homo sapiens, 18 h, read-out: viability of most resistant AML specimen (AML #8)",89.7%
same,viability at 5 µM,"[1]; Homo sapiens, 18 h, read-out: viability of most sensitive AML specimen (AML #20)",0.5%
same,viability at 5 µM,"[1]; Homo sapiens, 18 h in culture, read-out: mean viability of AML CD34+ cells",45.4%
same,viability at 7.5 µM,"[1]; Homo sapiens, 7.5 μM fenretinide, read-out: mean viability of AML CD34+ specimens",12.2%
same,apoptosis induction in AML CD34+ cells,[1]; short-term suspension culture,time- and dose-dependant manner
same,apoptosis in mononuclear cells,[2],little apoptosis
same,viability of normal hematopoietic CD34+ cells,[3]; 5 μM fenretinide,97.1%
same,viability of normal hematopoietic CD34+ cells,[3]; 7.5 μM fenretinide,58.1%
same,safe dose (presumed),[3]; from viability of normal CD34+ cells,below 5 μM
same,response of normal hematopoietic CD34+ cells,[3]; short-term suspension culture,relative resistant
same,splicing of the XBP-1 gene,[4],observable
same,apoptosis of CD34+CD38− cells,[5]; 2 μM fenretinide,60.58%±2.76%
same,apoptosis of CD34+CD38− cells,[5]; 4 μM fenretinide,63.75%±8.49%
same,apoptosis of CD34+CD38− cells,[5]; 6 μM fenretinide,62.83%±9.72%
same,reduction of LSC in the CD34+CD38− cells,[5]; representative specimen,80.3%
same,apoptosis in the LSC (CML stem cells),"[5]; representative specimen, fenretinide alone or co-treatment with imatinib",53.3%
same,expression of genes involved in oxidative and ER stress,[6],highly up-regulated
same,viability at 5 µM,[7]; 5 μM fenretinide,58%
same,viability at 7.5 µM,[7]; 7.5 μM fenretinide,20.9%
